The values below are quoted from earlier work in patent US20250101002A1, “DEUTERATED INFIGRATINIB COMPOUNDS” (QED Therapeutics, Inc., priority 2023, published 2025).

Counter-ions that a name gives are not always drawn.

For the series the following is noted: cholangiocarcinoma indication.

As to `CCN1CCN(c2ccc(Nc3cc(N(C)C(=O)Nc4c(Cl)c(OC)cc(OC)c4Cl)ncn3)cc2)CC1` [infigratinib monophosphate, Monophosphate Salt Form A of 3-(2,6-dichloro-3,5-dimethoxy-phenyl)-1-{6-4-(4-ethyl-piperazin-1-yl)-phenylaminol-pyrimidin-4-yl}-1-methyl-urea], the common adverse reactions result (infigratinib monophosphate dosed at 125 mg) is “nail toxicity, stomatitis, dry eye, fatigue, alopecia, palmar-plantar erythrodyesthesia syndrome, arthralgia, dysgeusia, constipation, abdominal pain, dry mouth, eyelash changes, diarrhea, dry skin, decreased appetite, blurred vision, and vomiting”. For the same compound, the “additional adverse reactions observed in corresponding clinical trials” value (infigratinib monophosphate) is “ocular toxicity, hyperphosphatemia and soft tissue mineralization, infections, anemia, pyrexia, abdominal pain, hypercalcemia, and sepsis”.
